Measured values from patent US11066412B2, “Substituted pyrrolo[2,1-a]phthalazines and benzo[g]pyrrolo[2,1-a]phthalazines for the treatment of cancer” (Academia Sinica, priority 2017, dated 2021).
Where two headings read alike, the source gives them in different places. Each block holds one compound with its values, some of them ahead of it.

Columns and labels:
[1] = tested on: human lymphoblastic leukemia cell line (CCRF-CEM); test: in vitro cytotoxicity, PrestoBlue assay; format: cell-based; settings: 72-hr incubation, mean ± STDEV of three to six experiments, read-out: IC50 CCRF-CEM
Description: (§1) All representative compounds of Formulae (I-A) and (I-B) were first evaluated for their in vitro cytotoxicity to human lymphoblastic leukemia cell line (CCRF-CEM) and its vinblastine-resistant sub-cell line (CCRF-CEM/VBL) (see Table 1).
(§2) After a 72-hr incubation in various concentrations of the newly synthesized compounds, the cytotoxic effects of them to all cell lines were determined by the PrestoBlue®(Invitrogen) assay using a microplate spectrophotometer. Briefly, at the end of treatment, an aliquot of PrestoBlue® solution was added and then cells were incubated at 37° C. for 1-2 hr. The absorbance at 570 and 600 nm was measured with a microplate reader. […] The ICso is defined by the concentration required to inhibit tumor cell growth by 50%. Data represent the mean±STDEV of three to six independent experiments for each compound.

[2] = tested on: colon cancer HCT-116; test: in vitro cytotoxicity, PrestoBlue assay; format: cell-based, human; settings: Table 2
Description: as §1, §2

[3] = tested on: non-small cell lung cancer H460; test: in vitro cytotoxicity, PrestoBlue assay; format: cell-based, human; settings: Table 2
Description: as §1, §2

[4] = tested on: pancreatic cancer PacaS1; test: in vitro cytotoxicity, PrestoBlue assay; format: cell-based, human; settings: Table 2
Description: as §1, §2

[5] = tested on: vinblastine-resistant sub-cell line (CCRF-CEM/VBL); test: in vitro cytotoxicity, PrestoBlue assay; format: cell-based, human; settings: for IC50: 72-hr incubation, mean ± STDEV of three to six experiments, read-out: IC50 CEM/VBL; for resistance factor (IC50 CEM/VBL vs IC50 of the parent cell line): number in brackets
Description: as §1, §2

[6] = tested on: small cell lung cancer H526; test: in vitro cytotoxicity, PrestoBlue assay; format: cell-based, human; settings: read-out: IC50 H526
[7] = tested on: pEGFP-N1 plasmid DNA; test: DNA cross-linking, alkaline agarose gel electrophoresis; format: biochemical; settings: 1-20 μM, 37° C., 2 hrs; FIG. 1
Description: In the present example, BO-2590, BO-2577 (Formula I-A) and BO-2698, BO-2755, BO-2762 and BO-2768 (Formula I-B) were tested for their DNA crosslinking activity, in which the cross-linking was analyzed by alkaline agarose gel electrophoresis. In brief, purified pEGFP-N1 plasmid DNA (1,500 ng) was mixed with various concentrations (1-20 μM) of the tested compounds in 40 μL binding buffer (3 mM sodium chloride/1 mM sodium phosphate, pH 7.4, and 1 mM EDTA). The reaction mixture was incubated at 37° C. for 2 hrs. At the end of reaction, the plasmid DNA was linearized by digestion with BamHI and followed by precipitation with ethanol. The DNA pellets were dissolved and denatured in alkaline buffer (0.5 N NaOH-10mM EDTA). An aliquot of 20 μL of DNA solution (1,000 ng) was mixed with 4 μL of 6× alkaline loading dye and then electrophoretically resolved on a 0.8% alkaline agarose gel with NaOH-EDTA buffer at 4° C. The electrophoresis was carried out at 18V for 22 h. After staining the gels with an ethidium bromide solution, the DNA was visualized under UV light. Results are illustrated in FIG. 1.

[8] = target: T1, VEGFR-2 (Homo sapiens, UniProt P35968); test: VEGFR-2 activation, western blotting in EA.hy926 cells; format: cell-based; settings: EA.hy926 cells, 12 hr; FIG. 3
T1 construct: endogenous in cells; host or cells: EA.hy926 endothelial cells
Description: In the present example, BO-2590 and BO-2577 were subject to the test of their activity in suppressing VEGFR-2 by western blotting analysis. Briefly, the endothelial EA.hy926 cells were incubated with BO-2590 or BO-2577 at various concentrations for 12 hr. The primary antibodies, anti-VEGFR-2 and anti-p-VEGFR-2, were used to blot the proteins of total VEGFR-2 and p-VEGFR-2, respectively. Results are illustrated in FIG. 3.

[9] = tested on: H1417; test: in vitro cytotoxicity to SCLC cells; format: cell-based, human; settings: Table 3
Description: as §2

[10] = tested on: H146; test: in vitro cytotoxicity to SCLC cells; format: cell-based, human; settings: Table 3
Description: as §2

[11] = tested on: H211; test: in vitro cytotoxicity to SCLC cells; format: cell-based, human; settings: Table 3
Description: as §2

[12] = tested on: H82; test: in vitro cytotoxicity to SCLC cells; format: cell-based, human; settings: Table 3
Description: as §2

[13] = tested on: H526 cells; test: single cell electrophoresis (comet) assay; format: cell-based; settings: FIG. 2
Source text: The data is the average of 3 independent experiments.
To this purpose, cells were encapsulating in a low-melting-point agarose suspension on a microscope slide, then were lysed in neutral or alkaline (pH>13) condition, and electrophoresis of the suspended lysed cells. The term “comet” refers to the pattern of DNA migration through the electrophoresis gel, which often resembles a comet, and the intensity of the comet tail relative to the head reflects the number of DNA breaks.

[14] = tested on: human SCLC H526 xenografts; test: tumor growth in xenograft-bearing nude mice; format: in vivo; settings: micelle formulation (Kolliphor/TWEEN 80/PEG400/ethanol/D5W); BO-2768 at 20 mg/kg twice daily; FIG. 12, panel A
Description: Athymic nude mice bearing the nu/nu gene were obtained from the National Laboratory Animal Center (Taipei, Taiwan). Male nude mice (6 weeks or older weighing 20-24 g or more) were used for all human tumor xenografts. The tested compounds were intravenously administered through tail vein. Tumor volume was determined by measuring the length x width x height (or width) with calipers. […] For tumor-bearing nude mice during the course of the experiment, the % body weight changes refer to: (the total weight on reading day/the total weight on day treatment started)×100.
In all experiments, the tumor cells were subcutaneously implanted in nude mice, and the BO-2590L was administered via tail vein when the tumor size reaching approximate 100 mm^3. […]
To confirm the therapeutic activity of BO-2590L, comparative experiments carried out by known chemotherapeutic agents, such as vatanalib and cisplatin, were also performed. Briefly, the H526 xenograft-bearing mice were divided into 4 groups which were treated with vehicle, BO-2590L (10 mg/kg, QD×9), vatalanib (100 mg/kg, QD×9), and cisplatin (4 mg/kg, Q2D×3), respectively. Results are illustrated in FIG. 11.
Results are illustrated in FIGS. 12 and 13.

[15] = body weight changes of xenograft-bearing nude mice; format: in vivo; settings: H526 xenograft mice
Description: Athymic nude mice bearing the nu/nu gene were obtained from the National Laboratory Animal Center (Taipei, Taiwan). Male nude mice (6 weeks or older weighing 20-24 g or more) were used for all human tumor xenografts. The tested compounds were intravenously administered through tail vein. Tumor volume was determined by measuring the length x width x height (or width) with calipers. The vehicle used for the tested compounds was normal saline (0.9% NaCl isotonic solution). For tumor-bearing nude mice during the course of the experiment, the % body weight changes refer to: (the total weight on reading day/the total weight on day treatment started)×100.

[16] = tested on: CD31; test: immunohistochemical staining of tumor xenograft sections, blood vessels; format: in vivo, nude mice; settings: for blood vessel in tumors (anti-CD31 staining): compared to vehicle control, FIG. 15, panel A; for CD31 marker intensity compared to control: day 9, H526 tumors, FIG. 15, panel B
Description: (§3) Tumor xenograft tissue sections on the slides were deparaffinized in xylene twice for 7 min each time. The slides were then rehydrated in graded ethanol, serially from 100% to 70%, followed by rinsing in dH2O. Antigen retrieval was performed using citrate buffer (0.01M, pH 6.0) with incubation in a cooker for 50 mins followed by ambient temperature cooling for 30 min. and then dH2O rinsing. Later slides were subjected to immunohistochemical (IHC) staining with primary antibodies (anti-rabbit CD31 antibody and anti-mouse γ-H2AX antibody) obtained from Abeam® following the manufacturer's instructions (Novolink Polymer Detection system, Leica Biosystems, Wetzlar, Germany).^11 After IHC processing, the slides were scanned digitally using the Panoramic 250 Flash II whole slide scanner and analyzed by 3DHISTECH Panoramic viewer software (3DHISTECH Ltd., Budapest, Hungary).
The density of blood vessels within the tumors was evaluated by immunofluorescence staining using anti-CD31 (a marker of endothelial cells) (FIG. 15, panel A). […] After IHC, slides were scanned by Panoramic 250 Flash II whole slide scanner. The expression of CD31 in tissue sections were determined from 15 different fields of 3 tumor sections and counts were averaged using 3DHISTECH Panoramic viewer software (3DHISTECH Ltd., Budapest, Hungary). […] However, on day 9, CD31 marker intensity was reduced to 4% in tumors treated with BO-2590L or vatalanib compared to control (FIG. 15, panel B). […] On day 9, CD31 marker intensity in cisplatin-treated tumor was 19% of control, which was less extent than BO-2590L or vatalanib.

[17] = tested on: γ-H2AX; test: immunohistochemical staining of tumor xenograft sections, DNA damage marker; format: in vivo, nude mice; settings: for γ-H2AX in tumors: FIG. 16, panel A; for γ-H2AX signals, quantitative analysis: FIG. 16, panel B
Description: as §3, with “3[…]” for “3DHISTECH”, “(3[…]” for “(3DHISTECH”
As BO-2590L is a DNA damaging agent, we thus investigated the effect of BO-2590L on the level of a DNA damage marker, γ-H2AX, via the use of immunohistochemical staining.

[18] = tested on: EA.hy926 cells; test: Tube-Formation Assay; format: cell-based; settings: 24 hr pre-treatment, 48-hr incubation on matrigel; FIG. 4
Description: Angiogenesis is the process of generating new blood vessels derived as extensions from the existing vasculature. Performance of vascular behavior or monitoring tube formation can determine whether the compound is capable of interrupting angiogenesis. In this example, whether the compound of formula (I) interrupted angiogenesis was investigated using Tube-Formation Assay.
Briefly, EA.hy926 cells were treated with various concentrations of BO-2590 for 24 hr. After that, cells (5×10^5 cells/well) were suspended in 100 μl medium containing 1% FCS and subsequently seeded onto 96-well plate pre-coated with matrigel 1 h at 37° C. After a 48-hr incubation, tube-formation ability was examined under a phase microscope.

T1 sequence (P35968 20-1356): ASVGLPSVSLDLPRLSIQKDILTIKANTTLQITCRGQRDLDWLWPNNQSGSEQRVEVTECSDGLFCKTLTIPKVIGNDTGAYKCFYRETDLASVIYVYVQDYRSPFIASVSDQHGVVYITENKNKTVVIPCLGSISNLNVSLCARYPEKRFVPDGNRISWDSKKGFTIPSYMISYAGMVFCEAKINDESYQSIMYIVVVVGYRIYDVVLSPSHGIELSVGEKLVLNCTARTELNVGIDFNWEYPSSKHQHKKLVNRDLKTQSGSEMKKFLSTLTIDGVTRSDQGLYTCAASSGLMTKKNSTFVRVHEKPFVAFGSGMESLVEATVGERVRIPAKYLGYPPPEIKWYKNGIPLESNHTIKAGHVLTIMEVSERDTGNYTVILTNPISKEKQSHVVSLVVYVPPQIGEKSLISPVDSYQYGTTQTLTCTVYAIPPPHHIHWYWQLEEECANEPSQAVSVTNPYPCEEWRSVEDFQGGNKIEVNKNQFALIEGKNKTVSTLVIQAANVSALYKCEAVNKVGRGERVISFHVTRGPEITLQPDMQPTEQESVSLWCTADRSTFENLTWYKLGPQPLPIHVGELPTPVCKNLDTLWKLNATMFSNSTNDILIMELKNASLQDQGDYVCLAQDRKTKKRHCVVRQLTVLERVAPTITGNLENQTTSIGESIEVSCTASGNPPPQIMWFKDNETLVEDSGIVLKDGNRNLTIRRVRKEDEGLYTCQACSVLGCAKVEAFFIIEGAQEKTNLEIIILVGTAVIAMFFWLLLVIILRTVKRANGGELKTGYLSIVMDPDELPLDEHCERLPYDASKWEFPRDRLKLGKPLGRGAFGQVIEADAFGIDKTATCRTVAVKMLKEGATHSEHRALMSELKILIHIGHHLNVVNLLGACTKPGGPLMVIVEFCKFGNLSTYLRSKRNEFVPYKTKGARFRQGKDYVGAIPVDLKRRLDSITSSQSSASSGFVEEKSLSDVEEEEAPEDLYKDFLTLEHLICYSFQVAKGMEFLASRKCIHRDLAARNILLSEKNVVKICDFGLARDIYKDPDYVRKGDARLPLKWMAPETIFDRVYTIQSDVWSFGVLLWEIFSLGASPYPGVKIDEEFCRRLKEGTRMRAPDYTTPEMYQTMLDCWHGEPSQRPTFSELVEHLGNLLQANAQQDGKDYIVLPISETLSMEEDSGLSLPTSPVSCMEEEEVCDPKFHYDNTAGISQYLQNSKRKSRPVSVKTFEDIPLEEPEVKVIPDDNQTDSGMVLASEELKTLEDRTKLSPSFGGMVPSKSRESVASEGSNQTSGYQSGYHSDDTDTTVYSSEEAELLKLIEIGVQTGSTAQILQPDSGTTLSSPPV

melting point: 180 to 182 °C
SMILES: CCc1c(CO)c(CO)c2c3ccccc3c(N3CCOCC3)nn12 [BO-2577, (3-Ethyl-6-morpholinopyrrolo[2,1-a]phthalazine-1,2-diyl)-dimethanol]
IC50 ([1]; Homo sapiens, CCRF-CEM): 3.04 ± 0.38 µM
IC50 ([2]; Homo sapiens, HCT-116): 11.5 ± 1.66 µM
IC50 ([3]; Homo sapiens, NCI-H460): 18.57 ± 0.18 µM
IC50 Paca SI [4]: 13.02 ± 0.93 µM
IC50 ([5]; Homo sapiens, CCRF-CEM): 2.55 ± 0.12 µM
resistance factor (IC50 CEM/VBL vs IC50 of the parent cell line) [5]: 0.84 ×
IC50 ([6]; Homo sapiens, NCI-H526, Table 2): 0.75 ± 0.12 µM
formation of DNA interstrand crosslinks [7]: induced DNA interstrand crosslinks
p-VEGFR-2 protein levels [8]: marked suppression in p-VEGFR-2 protein levels
total protein levels of VEGFR-2 [8]: did not significantly change the total protein levels of VEGFR-2

SMILES: N.N.[Cl][Pt][Cl] [Cisplatin, reference compound]
IC50 [1]: 16.5 ± 0.9 µM
IC50 [2]: 9.17 ± 0.67 µM
IC50 [3]: 5.11 ± 0.22 µM
IC50 Paca SI [4]: 27.04 ± 0.98 µM
IC50 [5]: 8.88 ± 1.86 µM
resistance factor (IC50 CEM/VBL vs IC50 of the parent cell line) [5]: 0.54 ×
IC50 ([6]; Table 2): 0.73 ± 0.07 µM
IC50 ([6]; Table 3): 1.75 ± 0.71 µM
IC50 [9]: 40.8 ± 5.97 µM
IC50 [10]: 10.2 ± 2.99 µM
IC50 [11]: 0.78 ± 0.46 µM
IC50 [12]: 1.75 ± 0.39 µM
DNA damage (comet tail) [13]: inducing DNA breaks in a dose dependent manner
tumor size [14]: slowly increased in size
deleterious effects on the bodyweight of the test animals ([15]; micelle formulation, FIG. 12, panel B): none
body weight ([15]; BO-2590L 10 mg/kg for consecutive 9 days, cisplatin 4 mg/Kg, FIG. 11, panel B): severe body weight lost
blood vessel in tumors (anti-CD31 staining) [16]: significantly reduced blood vessel
CD31 marker intensity compared to control [16]: 19%
γ-H2AX in tumors [17]: remarkably increased in γ-H2AX
γ-H2AX signals, quantitative analysis [17]: time-dependently increased in γ-H2AX signals

SMILES: Clc1ccc(Nc2nnc(Cc3ccncc3)c3ccccc23)cc1 [vatalanib]
tube formation [18]: suppressed tube formation, but at much higher concentrations
blood vessel in tumors (anti-CD31 staining) [16]: significantly reduced blood vessel
CD31 marker intensity compared to control [16]: 4%
γ-H2AX in tumors [17]: much less level
γ-H2AX signals, quantitative analysis [17]: moderate level of γ-H2AX
